Residues, ends and D or L forms follow the SMILES beside them. *: point of attachment. Cbz = O=C(OCc1ccccc1)*
Target: mutant p53 (Homo sapiens, UniProt P04637, P309S/R273H)
Format: cell-based
Set-up: Mutant p53 protein levels in mutant p53-expressing cancer cells treated with NSC59984; endogenous in cells; host or cells: SW480, DLD-1, Hop92, RXF393; effect on NSC59984-mediated down-regulation of mutant p53: dose or concentration left out as unconfirmed
Details: SW480 cells, MG132 with NSC59984, 16 hr
Method: The primary antibodies indicated in the figures were incubated with the transferred PVDF in blocking buffer at 4° C. overnight. Antibody binding was detected on PVDF with appropriate IRDye-secondary antibodies (LI-COR Biosciences, USA) by the ODYSSEY infrared imaging system.

**Q.** `CC(C)C[C@@H](C=O)NC(=O)[C@H](CC(C)C)NC(=O)[C@H](CC(C)C)NC(=O)OCc1ccccc1` [MG132, reference compound] (Cbz-Leu-Leu-Leu-aldehyde) was tested. Which “effect on NSC59984-mediated down-regulation of mutant p53” value did it give?
**A.** rescued

From patent publication US10322123B2, “Compound for anti-cancer therapy that acts by targeting GOF mutant P53 and stimulates P73 to restore the P53 pathway signaling” (The Penn State Research Foundation, priority 2014, dated 2019)
